Results taken from PMC6479915, “Novel Benzene-Based Carbamates for AChE/BChE Inhibition: Synthesis and Ligand/Structure-Oriented SAR Study” (International Journal of Molecular Sciences, 2019).

Tests used:
[1] = biological target: T1, AChE from electric eel (Electrophorus electricus, UniProt O42275); test: biochemical; settings: mean ± SD, n = three experiments; 25 °C, PBS pH 7.4, substrate ATCh 40 μM
T1 construct: purchased Sigma, St. Louis, MO, USA

[2] = biological target: T2, BChE from equine serum (Equus caballus, UniProt P81908); test: In vitro BChE inhibition, modified Ellman's method; assay type: biochemical; settings: for SI (index selectivity) = IC50 (AChE)/IC50 (BChE): higher value = higher selectivity to BChE
T2 construct: BChE (from equine serum); purchased Sigma, St. Louis, MO, USA; host or cells: equine serum
T2 sequence (P81908 whole entry): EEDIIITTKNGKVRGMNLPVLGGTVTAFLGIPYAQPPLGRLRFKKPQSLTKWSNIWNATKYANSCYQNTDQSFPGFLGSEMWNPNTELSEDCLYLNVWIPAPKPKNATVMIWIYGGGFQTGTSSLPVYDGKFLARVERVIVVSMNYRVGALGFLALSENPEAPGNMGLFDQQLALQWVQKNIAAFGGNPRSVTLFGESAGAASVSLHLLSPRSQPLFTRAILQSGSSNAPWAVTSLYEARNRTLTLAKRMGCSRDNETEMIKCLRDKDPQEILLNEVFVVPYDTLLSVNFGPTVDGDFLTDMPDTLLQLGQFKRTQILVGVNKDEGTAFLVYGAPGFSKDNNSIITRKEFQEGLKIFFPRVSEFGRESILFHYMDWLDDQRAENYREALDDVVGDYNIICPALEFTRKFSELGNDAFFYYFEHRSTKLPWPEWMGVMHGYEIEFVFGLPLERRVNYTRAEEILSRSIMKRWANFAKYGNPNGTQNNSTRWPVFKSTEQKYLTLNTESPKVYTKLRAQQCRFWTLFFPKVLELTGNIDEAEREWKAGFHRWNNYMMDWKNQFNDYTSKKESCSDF

T1 sequence (O42275 24-633): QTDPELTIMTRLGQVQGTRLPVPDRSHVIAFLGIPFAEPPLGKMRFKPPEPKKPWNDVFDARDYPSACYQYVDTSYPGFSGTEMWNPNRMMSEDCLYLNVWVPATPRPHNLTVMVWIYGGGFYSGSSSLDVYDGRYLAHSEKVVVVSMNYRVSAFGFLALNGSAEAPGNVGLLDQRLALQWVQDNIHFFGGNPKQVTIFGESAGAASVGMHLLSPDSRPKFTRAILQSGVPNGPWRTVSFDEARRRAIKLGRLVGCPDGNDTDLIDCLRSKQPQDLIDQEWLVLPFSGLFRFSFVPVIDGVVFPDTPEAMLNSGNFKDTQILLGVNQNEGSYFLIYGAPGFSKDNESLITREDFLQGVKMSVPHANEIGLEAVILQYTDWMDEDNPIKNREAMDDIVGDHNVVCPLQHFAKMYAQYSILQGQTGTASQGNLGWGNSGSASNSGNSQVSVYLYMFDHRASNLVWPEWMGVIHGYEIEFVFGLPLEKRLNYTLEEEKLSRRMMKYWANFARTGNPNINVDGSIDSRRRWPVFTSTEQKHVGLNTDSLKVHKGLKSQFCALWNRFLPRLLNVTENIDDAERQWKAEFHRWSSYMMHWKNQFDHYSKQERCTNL

SMILES | IC50 [1] [µM] | IC50 [2] [µM] | SI (index selectivity) = IC50 (AChE)/IC50 (BChE) [2]
CCN(C(=O)OC)C(C)C(=O)c1ccccc1 (stereo not drawn) [Compound 1, Methyl ethyl(1-oxo-1-phenylpropan-2-yl)carbamate] | 245.3 ± 0.75 | 227.9 ± 0.9 | 1.08
CCC(C(=O)c1ccccc1)N(C)C(=O)OC (stereo not drawn) [Compound 2, Methyl methyl(1-oxo-1-phenylbutan-2-yl)carbamate] | 329 ± 9.72 | 441 ± 7.54 | 0.75
CCC(C(=O)c1ccccc1)N(CC)C(=O)OC (stereo not drawn) [Compound 3, Methyl ethyl(1-oxo-1-phenylbutan-2-yl)carbamate] | 273.7 ± 2.16 | 363 ± 7.41 | 0.75
COC(=O)N(C)C(C)C(=O)c1cccc(C)c1 (stereo not drawn) [Compound 4, Methyl methyl(1-oxo-1-(m-tolyl)propan-2-yl)carbamate] | 134 ± 2.3 | 116 ± 2.16 | 1.16
COC(=O)N(C)C(C)C(=O)c1cccc(Cl)c1 (stereo not drawn) [Compound 5, Methyl (1-(3-chlorophenyl)-1-oxopropan-2-yl)(methyl)carbamate] | 330 ± 42.1 | 113.6 ± 0.29 | 2.90
COC(=O)N(C)C(C)C(=O)c1ccc(OC)cc1 (stereo not drawn) [Compound 6, Methyl (1-(4-methoxyphenyl)-1-oxopropan-2-yl)(methyl)carbamate] | 147 ± 1.51 | 186.6 ± 1.55 | 0.79
COC(=O)N(C)C(C)C(=O)c1ccc(C)cc1 (stereo not drawn) [Compound 7, Methyl methyl(1-oxo-1-(p-tolyl)propan-2-yl)carbamate] | 50.6 ± 0.63 | 181 ± 12 | 0.28
COC(=O)N(C)C(C)C(=O)c1ccc(Cl)cc1 (stereo not drawn) [Compound 8, Methyl (1-(4-chlorophenyl)-1-oxopropan-2-yl)(methyl)carbamate] | 309 ± 6.16 | 132 ± 4.55 | 2.35
COC(=O)N(C)C(C)C(=O)c1ccc(Br)cc1 (stereo not drawn) [Compound 9, Methyl (1-(4-bromophenyl)-1-oxopropan-2-yl)(methyl)carbamate] | 282.7 ± 0.71 | 224.1 ± 2.19 | 1.26
COC(=O)N(C)C(C)C(=O)c1ccc2c(c1)OCO2 (stereo not drawn) [Compound 10, Methyl (1-(benzo[d][1,3]dioxol-5-yl)-1-oxopropan-2-yl)(methyl)carbamate] | 225 ± 2.72 | 194.9 ± 1.93 | 1.16
CCN(C(=O)Oc1ccccc1)C(C)C(=O)c1ccccc1 (stereo not drawn) [Compound 11, Phenyl ethyl(1-oxo-1-phenylpropan-2-yl)carbamate] | 167 ± 1.75 | 27.6 ± 0.55 | 6.03
CCC(C(=O)c1ccccc1)N(C)C(=O)Oc1ccccc1 (stereo not drawn) [Compound 12, Phenyl methyl(1-oxo-1-phenylbutan-2-yl)carbamate] | 179 ± 6.21 | 53 ± 1.06 | 3.38
CCC(C(=O)c1ccccc1)N(CC)C(=O)Oc1ccccc1 (stereo not drawn) [Compound 13, Phenyl ethyl(1-oxo-1-phenylbutan-2-yl)carbamate] | 95.7 ± 5.37 | 15.62 ± 0.06 | 6.13
CCCC(C(=O)c1ccccc1)N(C)C(=O)Oc1ccccc1 (stereo not drawn) [Compound 14, Phenyl methyl(1-oxo-1-phenylpentan-2-yl)carbamate] | 97.97 ± 0.36 | 16.55 ± 0.13 | 5.92
Cc1cccc(C(=O)C(C)N(C)C(=O)Oc2ccccc2)c1 (stereo not drawn) [Compound 15, Phenyl methyl(1-oxo-1-(m-tolyl)propan-2-yl)carbamate] | 166 ± 2.75 | 48.29 ± 0.31 | 3.43
CC(C(=O)c1cccc(Cl)c1)N(C)C(=O)Oc1ccccc1 (stereo not drawn) [Compound 16, Phenyl (1-(3-chlorophenyl)-1-oxopropan-2-yl)(methyl)carbamate] | 109 ± 1.1 | 14.81 ± 0.01 | 7.35
COc1ccc(C(=O)C(C)N(C)C(=O)Oc2ccccc2)cc1 (stereo not drawn) [Compound 17, Phenyl (1-(4-methoxyphenyl)-1-oxopropan-2-yl)(methyl)carbamate] | 90.21 ± 0.73 | 106 ± 1.94 | 0.85
Cc1ccc(C(=O)C(C)N(C)C(=O)Oc2ccccc2)cc1 (stereo not drawn) [Compound 18, Phenyl methyl(1-oxo-1-(p-tolyl)propan-2-yl)carbamate] | 139 ± 1.45 | 87.6 ± 2.37 | 1.58
CC(C(=O)c1ccc(Cl)cc1)N(C)C(=O)Oc1ccccc1 (stereo not drawn) [Compound 19, Phenyl (1-(4-chlorophenyl)-1-oxopropan-2-yl)(methyl)carbamate] | 44.2 ± 2.35 | 38.96 ± 0.28 | 1.14
CC(C(=O)c1ccc(Br)cc1)N(C)C(=O)Oc1ccccc1 (stereo not drawn) [Compound 20, Phenyl (1-(4-bromophenyl)-1-oxopropan-2-yl)(methyl)carbamate] | 51.5 ± 1.38 | 44.1 ± 1.71 | 1.17

SMILES | IC50 [1] [µM] | IC50 [2] [µM] | SI (index selectivity) = IC50 (AChE)/IC50 (BChE) [2]
Cc1ccc(C(=O)C(C)N(C)C(=O)Oc2ccccc2)cc1C (stereo not drawn) [Compound 21, Phenyl (1-(3,4-dimethylphenyl)-1-oxopropan-2-yl)(methyl)carbamate] | 47.9 ± 2.09 | 26.41 ± 0.05 | 1.82
CC(C(=O)c1ccc2c(c1)OCO2)N(C)C(=O)Oc1ccccc1 (stereo not drawn) [Compound 22, Phenyl (1-(benzo[d][1,3]dioxol-5-yl)-1-oxopropan-2-yl)(methyl)carbamate] | 84 ± 0.43 | 53.6 ± 0.72 | 1.57
CCN(C(=O)OCc1ccccc1)C(C)C(=O)c1ccccc1 (stereo not drawn) [Compound 23, Benzyl ethyl(1-oxo-1-phenylpropan-2-yl)carbamate] | 158.4 ± 0.87 | 11.37 ± 0.05 | 13.93
CCC(C(=O)c1ccccc1)N(C)C(=O)OCc1ccccc1 (stereo not drawn) [Compound 24, Benzyl methyl(1-oxo-1-phenylbutan-2-yl)carbamate] | 104 ± 2.91 | 21.4 ± 0.26 | 4.87
CCC(C(=O)c1ccccc1)N(CC)C(=O)OCc1ccccc1 (stereo not drawn) [Compound 25, Benzyl ethyl(1-oxo-1-phenylbutan-2-yl)carbamate] | 119 ± 1.23 | 21.3 ± 0.48 | 5.61
CCCC(C(=O)c1ccccc1)N(C)C(=O)OCc1ccccc1 (stereo not drawn) [Compound 26, Benzyl methyl(1-oxo-1-phenylpentan-2-yl)carbamate] | 134.7 ± 0.7 | 16.3 ± 0.17 | 8.26
Cc1cccc(C(=O)C(C)N(C)C(=O)OCc2ccccc2)c1 (stereo not drawn) [Compound 27, Benzyl methyl(1-oxo-1-(m-tolyl)propan-2-yl)carbamate] | 83.3 ± 2.49 | 12.5 ± 0.24 | 6.67
CC(C(=O)c1cccc(Cl)c1)N(C)C(=O)OCc1ccccc1 (stereo not drawn) [Compound 28, Benzyl (1-(3-chlorophenyl)-1-oxopropan-2-yl)(methyl)carbamate] | 84.4 ± 2.27 | 5.51 ± 0.2 | 15.31
COc1ccc(C(=O)C(C)N(C)C(=O)OCc2ccccc2)cc1 (stereo not drawn) [Compound 29, Benzyl (1-(4-methoxyphenyl)-1-oxopropan-2-yl)(methyl)carbamate] | 62.6 ± 0.65 | 57.39 ± 0.02 | 1.09
Cc1ccc(C(=O)C(C)N(C)C(=O)OCc2ccccc2)cc1 (stereo not drawn) [Compound 30, Benzyl methyl(1-oxo-1-(p-tolyl)propan-2-yl)carbamate] | 40.06 ± 0.01 | 26.4 ± 0.4 | 1.52
CC(C(=O)c1ccc(Cl)cc1)N(C)C(=O)OCc1ccccc1 (stereo not drawn) [Compound 31, Benzyl (1-(4-chlroophenyl)-1-oxopropan-2-yl)(methyl)carbamate] | 52.83 ± 0.34 | 7.02 ± 0.15 | 7.53
CC(C(=O)c1ccc(Br)cc1)N(C)C(=O)OCc1ccccc1 (stereo not drawn) [Compound 32, Benzyl (1-(4-bromophenyl)-1-oxopropan-2-yl)(methyl)carbamate] | 32 ± 0.54 | 11.3 ± 0.15 | 2.84
Cc1ccc(C(=O)C(C)N(C)C(=O)OCc2ccccc2)cc1C (stereo not drawn) [Compound 33, Benzyl (1-(3,4-dimethylphenyl)-1-oxopropan-2-yl)(methyl)carbamate] | 76.8 ± 2.76 | 16.9 ± 0.22 | 4.55
CC(C(=O)c1ccc2c(c1)OCO2)N(C)C(=O)OCc1ccccc1 (stereo not drawn) [Compound 34, Benzyl (1-(benzo[d][1,3]dioxol-5-yl)-1-oxopropan-2-yl)(methyl)carbamate] | 75.6 ± 1.25 | 51.9 ± 1.18 | 1.46
COC(=O)N(C)C(C)C(=O)c1cccc2ccccc12 (stereo not drawn) [Compound 35] | 127 ± 1.74 | 150 ± 7.13 | 0.84
CC(C(=O)c1cccc2ccccc12)N(C)C(=O)Oc1ccccc1 (stereo not drawn) [Compound 36] | 99.6 ± 5.88 | 12.7 ± 0.19 | 7.83
CC(C(=O)c1ccc(Cl)c2ccccc12)N(C)C(=O)Oc1ccccc1 (stereo not drawn) [Compound 37, Phenyl (1-(4-chloronaphthalen-1-yl)-1-oxopropan-2-yl)(methyl)carbamate] | 30.6 ± 1.57 | 13.5 ± 0.47 | 2.26
CC(C(=O)c1ccc(Br)c2ccccc12)N(C)C(=O)Oc1ccccc1 (stereo not drawn) [Compound 38, Phenyl (1-(4-bromonaphthalen-1-yl)-1-oxopropan-2-yl)(methyl)carbamate] | 61.7 ± 1.42 | 13 ± 0.28 | 4.76
CC(C(=O)c1cccc2ccccc12)N(C)C(=O)OCc1ccccc1 (stereo not drawn) [Compound 39, Benzyl methyl(1-(naphthalen-1-yl)-1-oxopropan-2-yl)carbamate] | 105.2 ± 0.99 | 18.94 ± 0.18 | 5.55
